# Data taken from US20220257636A1, “REDUCTION OF BONE RESORPTION, ESPECIALLY IN CHRONIC JOINT DISEASES” (TECHNISCHE UNIVERSITÄT DARMSTADT, priority 2019, published 2022).
# Entries after “also recorded” stand apart in the source; their conditions may differ. {Cy5} = Cyanine5 fluorescent label
# Columns and labels:
# pre-osteoclasts = assay: Induction of osteoclast genesis, substances added to pre-osteoclasts; format: cell-based, human; conditions: TLR7/8 agonist added to pre-osteoclasts
# Method: (§1) After 9 to 12 days the cells were fixed and tested for the osteoclast marker TRAP (tartrate-resistant acid phosphatase). TRAP positive cells which also comprised at least three nuclei were classified as osteoclasts and counted with the light microscope.
# (§2) Isolated human CD14^+ monocytes were treated with 1 μg/ml miR-574-5p oe sEVs or ScrC sEVs at different time points of the differentiation (FIG. 8A, 8B, 8C).
# CD14+ monocytes [1] = assay: Cytokine mRNA levels by RT-qPCR after stimulation of CD14+ monocytes; format: cell-based, human
# Method: CD14^+ monocytes were stimulated with sEVs from the synovial fluid of ACPA positive patients with rheumatoid arthritis (4 μg/ml), with miR-574-5p oe sEVs (1 μg/ml) or with ScrC sEVs (1 μg/ml) for 4 hours each. Then the whole RNA was isolated and the mRNA levels of IL-23, IL-8, INFα, IL-1β and TNFα were analyzed with RT-qPCR. These cytokines are known for their influence onto the differentiation of osteoclasts (Amara-sekara D. S., Yun Ii., Kim S., Lee N. and Rho J. (2018). “Regulation of Osteoclast Differentiation by Cytokine Networks.” Immune Netw 18: • 1-18). The sequences of the primer pairs used are shown in the sequence protocol (SEQ ID NOs: 6-7 for INFα, SEQ ID NOs: 8-9 for IL-23, SEQ ID NOs: 10-11 for TNFα, SEQ ID NOs: 12-13 for IL-1β and SEQ ID NOs: 14-15 for IL-8). For the normalization of the cDNA amounts in different samples the levels of β-actin were used (primer pair: SEQ ID NOs: 16-17).
# CD14+ monocytes [2] = assay: Induction of osteoclast genesis (count of TRAP positive multinuclear cells), substances added to CD14+ monocytes; format: cell-based, human
# Excerpt: (§3) CD14^+ monocytes were isolated from PMBCs (peripheral blood mononuclear cells) of healthy donors and stimulated with M-CSF (recombinant human macrophage colony-stimulating factor), RANK-L (receptor activator of NF-κB ligand) and different concentrations of the isolated sEVs. With the sEVs isolated from the synovial fluid both freshly isolated monocytes and differentiated M2-like macrophages were stimulated (FIG. 2).
# as §1, §2
# The influence of the miR-574-5p PNA AntagomiR which was coupled to CPP onto the osteoclast genesis was tested. This scheme has been adapted such that on day 1 the CPP-coupled miR-574-5p PNA AntagomiR (CPP-PNA) was added in concentrations of 10 μM or 20 μM. The negative control was conducted without any addition of CPP-PNA (0 μm CPP-PNA). […] Also for this experiment freshly isolated human monocytes were used. After the completion of the differentiation matured osteoclasts were visualized with the help of histologic staining (detection of tartrate-resistant acid phosphatases, TRAP). Subsequently, multinuclear TRAP positive cells are quantified under a light microscope.
# [3] = test system: freshly isolated human monocytes
# Method: The cytotoxicity was tested with an MTT assay in which the eponymous dye MTT (3-(4,5-dimethylthiazol-2-yl)-2,5-diphenyltetrazoliumbromide) is used. As negative control a PNA with a sequence which was not complementary to miR-574-5p and which was also bound to CPP by means of the PEG linker was tested (SEQ ID NO: 30). The CPP-PNA construct of the negative control used can be illustrated as follows (from the N-terminus to the C-terminus): [sequence]-(eg1)-[sequence](K—NH2). The negative control differs from the above-described construct according to the present invention only with respect to the PNA sequence.
# The cytotoxicity was tested on freshly isolated human monocytes.
# M2-like macrophages = assay: Induction of osteoclast genesis (count of TRAP positive multinuclear cells), substances added to M2-like macrophages; format: cell-based, human; conditions: added with miR-574-5p to M2-like macrophages (FIG. 10D)
# Excerpt: as §3, §1, §2
# TLR8 = molecular target: T1, TLR8 (Homo sapiens, UniProt Q9NR97); assay: MST (microscale thermophoresis) direct interaction with TLR8; format: binding; conditions: Cy5-labeled miR
# T1 sequence (Q9NR97 27-1041): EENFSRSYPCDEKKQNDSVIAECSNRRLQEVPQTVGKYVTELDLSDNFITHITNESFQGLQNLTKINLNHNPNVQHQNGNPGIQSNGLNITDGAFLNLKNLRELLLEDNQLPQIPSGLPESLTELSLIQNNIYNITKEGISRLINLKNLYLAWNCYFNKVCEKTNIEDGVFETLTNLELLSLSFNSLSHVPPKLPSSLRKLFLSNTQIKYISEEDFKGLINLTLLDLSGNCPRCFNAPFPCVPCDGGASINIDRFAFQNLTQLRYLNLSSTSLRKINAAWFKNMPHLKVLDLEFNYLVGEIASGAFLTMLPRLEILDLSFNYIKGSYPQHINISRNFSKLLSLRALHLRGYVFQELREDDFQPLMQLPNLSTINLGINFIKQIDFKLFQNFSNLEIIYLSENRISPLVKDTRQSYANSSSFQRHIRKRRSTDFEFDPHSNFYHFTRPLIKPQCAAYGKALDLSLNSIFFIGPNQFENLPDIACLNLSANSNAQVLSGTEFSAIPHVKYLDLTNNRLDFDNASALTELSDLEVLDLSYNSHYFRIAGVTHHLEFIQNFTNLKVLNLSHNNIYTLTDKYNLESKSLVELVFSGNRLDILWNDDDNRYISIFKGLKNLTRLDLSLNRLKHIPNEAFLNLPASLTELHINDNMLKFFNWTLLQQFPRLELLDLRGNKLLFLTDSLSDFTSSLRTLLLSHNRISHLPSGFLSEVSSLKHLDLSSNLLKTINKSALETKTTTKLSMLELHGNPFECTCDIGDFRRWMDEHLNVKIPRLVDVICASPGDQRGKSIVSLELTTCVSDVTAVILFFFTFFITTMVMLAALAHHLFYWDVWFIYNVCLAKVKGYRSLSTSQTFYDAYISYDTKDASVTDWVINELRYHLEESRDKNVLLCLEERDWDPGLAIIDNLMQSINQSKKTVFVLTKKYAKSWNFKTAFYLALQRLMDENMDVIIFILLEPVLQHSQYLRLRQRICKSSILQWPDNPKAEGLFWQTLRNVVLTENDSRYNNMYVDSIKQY
# Excerpt: In the context of the present invention, a direct interaction of miR-574-5p with TLR8 was detected by means of MST (microscale thermophoresis); (Wienken C. J., Baaske P., Rothbauer U., Braun D. and Duhr S. (2010). “Protein-binding assays in biological liquids using microscale thermophoresis.” Nat Commun 1: 100). […] For the MST experiments Cy5-labeled miR-574-5p (SEQ ID NO: 18) and Cy5-labeled miR-16-5p (SEQ ID NO: 19) were used.
# [4] = 10 ng/ml, compared with miR-574-5p oe sEVs (FIGS. 11E and 11F)
compound,measurement,setting,value
CCOCc1nc2c(N)nc3ccccc3c2n1CC(C)(C)O [R848],osteoclast genesis,pre-osteoclasts,no significant increase
same,IL-23 mRNA,CD14+ monocytes [1]; [4],Comparable results
same,INFα mRNA,CD14+ monocytes [1]; [4],Comparable results
"GRKKRWFRRRRMKWKK-(eg1)-ctcacacacacacactca(K—CONH2) (PEG linker, C-terminal amide; Cell Penetrating Peptide (CPP); Peptide Nucleic Acid (PNA) AntagomiR) [CPP-coupled miR-574-5p PNA AntagomiR]",osteoclast genesis,"CD14+ monocytes [2]; added on day 1 at 10 μM or 20 μM, versus 0 μM, TRAP positive multinuclear cells",concentration-dependent reduction
same,"cytotoxicity (MTT, viability)",[3],Neither in the case of the negative control (FIG. 13A) nor in the case of miR-574-5p PNA AntagomiR (FIG. 13B) a significant toxicity was observed
same,viability in comparison to the untreated control,[3],increased viability
"GRKKRWFRRRRMKWKK-(eg1)-gctattaccttaacccag(K—NH2) (GCTATTACCTTAACCCAG; all peptide nucleic acid (PNA); N-terminal cell-penetrating peptide via eg1 linker, C-terminal lysine amide, further chemistry not fully specified) [negative control]","cytotoxicity (MTT, viability)",[3],Neither in the case of the negative control (FIG. 13A) nor in the case of miR-574-5p PNA AntagomiR (FIG. 13B) a significant toxicity was observed
"ODN 2087: TLR7/8 inhibitor oligonucleotide, SEQ ID NO: 24, MiltenyiBiotec (TCCTGAGCTTGAAGT; DNA, all phosphorothioate, methylation of C not given here)",effect of inhibitor on the R848 effect on the number of osteoclasts,CD14+ monocytes [2]; added with R848 (FIGS. 10E and 10F),nullify the effect
same,effect of inhibitor on the miR-574-5p induced increase of the number of osteoclasts,CD14+ monocytes [2]; added with miR-574-5p to CD14+ monocytes (FIG. 10C),nullifies the effect
same,effect of inhibitor on the miR-574-5p induced increase of the number of osteoclasts,M2-like macrophages,nullifies the effect
same,effect of inhibitor on the induced INFα and IL-23 mRNA increases,CD14+ monocytes [1]; added to the stimulation with sEVs or R848,nullify the observed effects
"miR-16-5p: microRNA; Cy5-labeled form (SEQ ID NO: 19) used for MST (UAGCAGCACGUAAAUAUUGGCG; RNA, 3' {Cy5}, backbone not given here)",specific interaction with TLR8,TLR8,specific interaction between TLR8 and miR-16-5p was not shown; also recorded: specific interaction between TLR8 and miR-16-5p was not observed
"miR-574-5p: microRNA, SEQ ID NO: 4; Cy5-labeled form (SEQ ID NO: 18) used for MST (UGAGUGUGUGUGUGUGAGUGUGU; Cy5-labeled form used for MST, label position not given here; listed as Homo sapiens)",stimulation of the osteoclast genesis,"CD14+ monocytes [2]; miR-574-5p alone, not in sEVs (FIG. 9)","Neither miR-574-5p alone, nor miR-574-5p in the presence of synthetic liposomal vehicles (Lipofectamine® 2000 (Thermo Fisher Scientific, Waltham, USA)) results in a stimulation"
same,stimulation of the osteoclast genesis,CD14+ monocytes [2]; miR-574-5p in the presence of synthetic liposomal vehicles (Lipofectamine 2000) (FIG. 9),"Neither miR-574-5p alone, nor miR-574-5p in the presence of synthetic liposomal vehicles (Lipofectamine® 2000 (Thermo Fisher Scientific, Waltham, USA)) results in a stimulation"
same,Kd,TLR8; read-out: constant of dissociation KD,30.8 ± 5.2 nM
same,IL-1β mRNA level,CD14+ monocytes [1]; any of the conditions tested,not influenced
same,IL-8 mRNA level,CD14+ monocytes [1]; any of the conditions tested,not influenced
same,TNFα mRNA level,CD14+ monocytes [1]; any of the conditions tested,not influenced
